From PubChem BioAssay AID1963865 (Molecular Pharmacology Branch, DTP, NCI, 2024)

Test system: KRAS PDC multicell spheroid viability
Experiment: Anticancer human tumor 825966-067-R-J1-PDC patient-derived colon carcinoma cell line growth inhibition [KRAS2]
Conditions: for IC50: curve of first compound; for viability, T/C: stronger effect = lower value
Excerpt: Multicellular complex tumor spheroid response to RAS pathway inhibitors in combination with a targeted agents in patient-derived cell lines with oncogenic KRAS variants from multiple cancer types
A high-throughput screen of multi-cell type tumor spheroids was designed to identify active combinations of targeted small molecules and KRAS pathway inhibitors. Complex spheroids include a stromal component modeled by human endothelial cells (HUVEC) and fibroblasts modeled by human mesenchymal stem cells (MSCs). The concentration ranges selected for each drug and investigational agent were based upon clinically achievable concentrations if the clinical Cmax of the agent was known.
Compounds. The drugs and investigational agents: BI-3406 (NSC825286), BAY-293 (NSC824723), batoprotafib (TNO155; NSC825523), sotorasib (AMG 510; NSC818433), MRTX1257 (NSC819558), elimusertib (BAY 1895344; NSC800525), molibresib (GSK525762; NSC774829), temuterkib (LY3214996; NSC803410), venetoclax (NSC766270), alisertib (NSC759677), olaparib (NSC753686), talazoparib (NSC767125), erdafitinib (NSC781556), ipatasertib (NSC767898), cabozantinib (NSC761068), nintedanib (NSC756659), abemaciclib (NSC768073), docetaxel (NSC628503), trametinib (NSC758246), and sapanisertib (NSC764658) were obtained from the National Cancer Institute (NCI) Developmental Therapeutics Program Chemical Repository. The FDA-approved anticancer drug set is available from the Developmental Therapeutics Program. […] The stock solutions were prepared in dimethyl sulfoxide (DMSO, Sigma-Aldrich, St. Louis, MO, cat. D2650) at 800-fold the tested concentration and stored at -70 degrees C prior to their use. All drugs and investigational agents were tested over a range starting from a high concentration at or near the clinical Cmax and decreasing in half-log increments. If the clinical Cmax for an agent had not been determined, the highest concentration tested was 10 microM.
Cell Culture. All cells were maintained in an incubator at 37 degrees C and 5% CO2 with 95% humidity. The PDC lines were cultured according to standard operating procedures established by the NCI PDMR (https://pdmr.cancer.gov/sops/default.htm). Briefly, all PDCs were thawed and cultured in Matrigel-coated flasks prepared with a working solution of 1X Ham's F-12 nutrient mix, without supplementation (Invitrogen, Waltham, MA, cat. 11765054), 100 U/mL penicillin-streptomycin (Invitrogen, cat. 15140122), and 2.5% Matrigel (Corning Inc., Corning, NY, cat. 354248) for the first three passages. All PDCs were cultured in complete DMEM/F-12 media containing advanced DMEM/F-12 (Invitrogen, cat. 12634028), 4.9% defined fetal bovine serum, heat inactivated (HyClone Laboratories Inc., Logan, UT, cat. SH30070.03HI), 389 ng/mL hydrocortisone (Sigma-Aldrich, cat. H4001), 9.7 ng/mL human EGF recombinant protein (Invitrogen, cat. PHG0313), 23.4 microg/mL adenine (Sigma-Aldrich, cat. A2786), 97.3 U/mL penicillin-streptomycin (Invitrogen, cat. 15140122), 1.9 mM L-glutamine (Invitrogen, cat. 25030081), and 9.7 microM Y-27632 dihydrochloride (Tocris Bioscience, Bristol, United Kingdom, cat. 1254). The PDCs were cultured in complete DMEM/F12 media without 9.7 microM Y-27632 dihydrochloride for at least two passages prior to the screen. The established cell line HOP-62 was cultured in RPMI 1640 medium, HEPES (Invitrogen, cat. 22400105) with 10% defined fetal bovine serum (HyClone Laboratories Inc., cat. SH30070.03) and 2 mM L-glutamine (Invitrogen, cat. 25030081). The pooled donor HUVEC were cultured in endothelial cell growth medium 2 (PromoCell, Heidelberg, Germany, cat. C-22011) and the hMSC were cultured in mesenchymal stem cell growth medium 2 (PromoCell, cat. C-28009). For all experiments, HUVEC and hMSC were used at passages </=5, while the malignant cell lines were used at passages </=15. […]

[1] = second compound 0.1 µM, first compound 0.01 µM
[2] = second compound 0.1 µM, first compound 0.0316 µM
[3] = second compound 0.1 µM, first compound 0.1 µM
[4] = second compound 0.1 µM, first compound 0.316 µM
[5] = second compound 0.1 µM, first compound 1 µM
[6] = second compound 0.1 µM, first compound 3.16 µM
[7] = second compound 0.316 µM, first compound 0.01 µM
[8] = second compound 0.316 µM, first compound 0.0316 µM
[9] = second compound 0.316 µM, first compound 0.1 µM
[10] = second compound 0.316 µM, first compound 0.316 µM
[11] = second compound 0.316 µM, first compound 1 µM
[12] = second compound 0.316 µM, first compound 3.16 µM
[13] = second compound 1 µM, first compound 0.01 µM
[14] = second compound 1 µM, first compound 0.0316 µM
[15] = second compound 1 µM, first compound 0.1 µM
[16] = second compound 1 µM, first compound 0.316 µM
[17] = second compound 1 µM, first compound 1 µM
[18] = second compound 1 µM, first compound 3.16 µM
[19] = second compound 3.16 µM, first compound 0.01 µM
[20] = second compound 3.16 µM, first compound 0.0316 µM
[21] = second compound 3.16 µM, first compound 0.1 µM
[22] = second compound 3.16 µM, first compound 0.316 µM
[23] = second compound 3.16 µM, first compound 1 µM
[24] = second compound 3.16 µM, first compound 3.16 µM
[25] = second compound 10 µM, first compound 0.01 µM
[26] = second compound 10 µM, first compound 0.0316 µM
[27] = second compound 10 µM, first compound 0.1 µM
[28] = second compound 10 µM, first compound 0.316 µM
[29] = second compound 10 µM, first compound 1 µM
[30] = second compound 10 µM, first compound 3.16 µM
[31] = second compound 0.1 µM, first compound 10 µM
[32] = second compound 0.316 µM, first compound 10 µM
[33] = second compound 1 µM, first compound 10 µM
[34] = second compound 3.16 µM, first compound 10 µM
[35] = second compound 10 µM, first compound 10 µM
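Note: spheroids exposed to compounds for 7 days.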
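Throughout, for viability, T/C: 100% = DMSO vehicle control viability.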

| Compound | IC50 (second compound 0.1 µM) [µM] | IC50 (second compound 0.316 µM) [µM] | IC50 (second compound 1 µM) [µM] | IC50 (second compound 3.16 µM) [µM] | IC50 (second compound 10 µM) [µM] | viability, T/C [2] [%] | viability, T/C [3] [%] | viability, T/C [4] [%] | viability, T/C [5] [%] | viability, T/C [6] [%] | viability, T/C [8] [%] | viability, T/C [9] [%] | viability, T/C [10] [%] | viability, T/C [11] [%] | viability, T/C [14] [%] | viability, T/C [15] [%] | viability, T/C [20] [%] | viability, T/C [21] [%] | viability, T/C [26] [%] | viability, T/C [27] [%] | other results |
| --- | --- | --- | --- | --- | --- | --- | --- | --- | --- | --- | --- | --- | --- | --- | --- | --- | --- | --- | --- | --- | --- |
| CC1COCCN1c1cc(-c2ccnn2C)c2ccnc(-c3ccn[nH]3)c2n1 (stereo not given) + CC1OCC2(CCN(c3cnc(Sc4ccnc(N)c4Cl)c(N)n3)CC2)C1N | 2.86 | > 3.16 | 3.16 | 0.0793 | 0.0172 | 120 | 78.5 | 75.3 | 60 | 46.6 | 139 | 57.9 | 66.4 | 60.2 | 135 | 57.4 | 118 | 32.4 | 29.6 | 12.9 | viability, T/C [1]: 135%; viability, T/C [7]: 125%; viability, T/C [12]: 59%; viability, T/C [13]: 128%; viability, T/C [16]: 55.8%; viability, T/C [17]: 51.3%; viability, T/C [18]: 48.5%; viability, T/C [19]: 134%; viability, T/C [22]: 29%; viability, T/C [23]: 32.9%; viability, T/C [24]: 36.3%; viability, T/C [25]: 68.1%; viability, T/C [28]: 11.3%; viability, T/C [29]: 12.6%; viability, T/C [30]: 18.3% |
| CC1(C)CCC(CN2CCN(c3ccc(C(=O)NS(=O)(=O)c4ccc(NCC5CCOCC5)c([N+](=O)[O-])c4)c(Oc4cnc5[nH]ccc5c4)c3)CC2)=C(c2ccc(Cl)cc2)C1 + CC1OCC2(CCN(c3cnc(Sc4ccnc(N)c4Cl)c(N)n3)CC2)C1N | 2.22 | 2.23 | 2.14 | 2.36 | 1.97 | 103 | 88.4 | 116 | 114 | 25.6 | 102 | 104 | 119 | 96.9 | 99 | 110 | 122 | 126 | 69 | 78.2 | viability, T/C [31]: 11.1%; viability, T/C [12]: 29.6%; viability, T/C [32]: 3.21%; viability, T/C [16]: 119%; viability, T/C [17]: 110%; viability, T/C [18]: 19.3%; viability, T/C [33]: 4.73%; viability, T/C [22]: 111%; viability, T/C [23]: 119%; viability, T/C [24]: 26.6%; viability, T/C [34]: 4.06%; viability, T/C [28]: 131%; viability, T/C [29]: 141%; viability, T/C [30]: 11.5%; viability, T/C [35]: 2% |
| CC(C)n1nc(-c2ccc3oc(N)nc3c2)c2c(N)ncnc21 + C=CC(=O)N1CCN(c2nc(=O)n(-c3c(C)ccnc3C(C)C)c3nc(-c4c(O)cccc4F)c(F)cc23)C(C)C1 | > 0.1 | > 0.1 | > 0.1 | > 0.1 | > 0.1 | 130 | 142 |  |  |  | 154 | 101 |  |  | 89.9 | 107 | 114 | 114 | 79.4 | 76.5 | viability, T/C (second compound 0.1 µM, first compound 0.000316 µM): 113%; viability, T/C (second compound 0.1 µM, first compound 0.001 µM): 116%; viability, T/C (second compound 0.1 µM, first compound 0.00316 µM): 114%; viability, T/C [1]: 147%; viability, T/C (second compound 0.316 µM, first compound 0.000316 µM): 112%; viability, T/C (second compound 0.316 µM, first compound 0.001 µM): 96.7%; viability, T/C (second compound 0.316 µM, first compound 0.00316 µM): 118%; viability, T/C [7]: 130%; viability, T/C (second compound 1 µM, first compound 0.000316 µM): 106%; viability, T/C (second compound 1 µM, first compound 0.001 µM): 102%; viability, T/C (second compound 1 µM, first compound 0.00316 µM): 129%; viability, T/C [13]: 138%; viability, T/C (second compound 3.16 µM, first compound 0.000316 µM): 103%; viability, T/C (second compound 3.16 µM, first compound 0.001 µM): 99.5%; viability, T/C (second compound 3.16 µM, first compound 0.00316 µM): 103%; viability, T/C [19]: 119%; viability, T/C (second compound 10 µM, first compound 0.000316 µM): 89.6%; viability, T/C (second compound 10 µM, first compound 0.001 µM): 94.7%; viability, T/C (second compound 10 µM, first compound 0.00316 µM): 106%; viability, T/C [25]: 93.5% |
| Cn1nccc1Nc1nccc(-c2cc3c(s2)C(C)(C)N(CCN2CCOCC2)C3=O)n1 + CNCc1ccccc1-c1csc(C(C)Nc2nc(C)nc3cc(OC)c(OC)cc23)c1 | > 10 | > 10 | 5.04 | 0.0531 | < 0.0316 | 108 | 96.9 | 123 | 125 | 96.1 | 94.8 | 103 | 137 | 75.6 | 118 | 137 | 78 | 13.4 | 0.39 | 0.21 | viability, T/C [31]: 82.3%; viability, T/C [12]: 82.2%; viability, T/C [32]: 75.8%; viability, T/C [16]: 134%; viability, T/C [17]: 98.1%; viability, T/C [18]: 66.8%; viability, T/C [33]: 29%; viability, T/C [22]: 12.4%; viability, T/C [23]: 0.56%; viability, T/C [24]: 0.23%; viability, T/C [34]: 0.47%; viability, T/C [28]: 0.16%; viability, T/C [29]: 0.16%; viability, T/C [30]: 2.28%; viability, T/C [35]: 0.24% |
